Laboratory results taken from article PMC7946228, “Discovery of novel candidates for anti-liposarcoma therapies by medium-scale high-throughput drug screening” (PLoS ONE, 2021).

Experiments:
[1] = test system: normal cells (blood, bone marrow from healthy donors, iMSC#3); assay: Toxicity towards normal cells ex vivo, ATP viability 72h; type: cell-based, human; conditions: 1 nM to 10 μM
Experimental: 349 compounds from anti-cancer Selleck Chemical library were pre-aliquoted at five concentrations, increasing in 10-fold steps from 1 nM to 10 μM, in 384-well plates using an Echo Liquid Handler. Each plate also contained positive (benzethonium chloride, BzCl) and negative (DMSO only) controls. Additional drugs were added manually to the same plates at the same concentration range. Cells were seeded directly into the plates containing the drugs. After 72h viability was assessed through levels of ATP, with Cell Titer Glow assay (Promega, Wisconsin, United States) and luminescence quantified using a […]. Data from drug screens were analyzed with R version 3.4.0 (R_Core_Team, 2017) normalized to median positive (BzCl) and median negative (DMSO) controls using formula: (drug-BzCl)/(DMSO–BzCl), with total viability calculated as the area under the curve over all five drug concentrations, adjusted using qualitatively constrained quantile smoothing splines, R package ‘cobs’ version 1.3–3 [22]. […] For two cases where the z’-factor was below 0.5, strictly standardized mean difference (SSMD) was additionally calculated, giving the population value (β) of SSMD -4 and -5, respectively, indicating good quality. […]

[2] = test system: all cancer cell lines (NCI-60); parameters: method as in NCI-60 project; conditions: ref NCI-60 project; cited from earlier work

| SMILES | toxicity towards normal cells compared with liposarcoma cell lines [1] | IC50 [2] |
| --- | --- | --- |
| Cn1cc(CNCC2CCN(c3ncc(C(=O)NO)cn3)CC2)c2ccccc21 [JNJ-26481585] | more toxic to bone marrow cells in vitro than to liposarcoma cell lines | – |
| CC(C)[C@]12O[C@H]1[C@@H]1O[C@]13[C@]1(O[C@H]1C[C@H]1C4=C(CC[C@@]13C)C(=O)OC4)[C@@H]2O [Triptolide] | more toxic to bone marrow cells in vitro than to liposarcoma cell lines | 12 nM |
